# Experimental data taken from patent US10899733B2, “Inhibitors of PARPs that catalyze mono-ADP-ribosylation” (OREGON HEALTH & SCIENCE UNIVERSITY, priority 2017, dated 2021).
# Like-named read-outs stand apart in the source and are kept apart here.
# What was measured:
# Assay type in all cases: biochemical
# [1] = biological target: T1, PARP4brct-cat (Homo sapiens, UniProt Q9UKK3); assay: PARP panel: ADP-ribosylation of SRPK2 using 6-a-NAD+; settings: up to 100 μM
# T1 construct: PARP4brct-cat
# From the text: (§1) We screened 22 against poly-ADPr PARPs (PARPs 1, 2, and PARP5b) and mono-ADPr PARPs (PARPs 3, 4, 10, 11, 14, and 15) in an assay that measures ADP-ribosylation of SRPK2 using an N^6-alkyne tagged NAD^+ (6-a-NAD^+), a clickable NAD^+ analogue.{Jiang et al., 2010, J. Am. Chem. Soc. […] The observed selectivity is most likely due to the differences in the last position of the H-Y-E catalytic triad of these enzymes versus the H-Y-I triad found in PARP10. {Hottiger et al., 2010, Trends Biochem. Sci. 35, pp. 208-219} The glutamate (E988 in PARP1) in PARPs 1-4 and PARP 5b most likely clash with the pyridiny-4-yl group at the 6-position of 22, while PARP10 contains an isoleucine (1978) at this position that can accommodate this group (FIG. 1B).
# [2] = biological target: PARP1 (Homo sapiens, UniProt P09874); assay: as above
# From the text: as §1
# [3] = biological target: T2, PARP15cat (Homo sapiens, UniProt Q460N3); assay: as above
# T2 construct: PARP15cat
# T2 sequence (Q460N3 482-678 limits assumed): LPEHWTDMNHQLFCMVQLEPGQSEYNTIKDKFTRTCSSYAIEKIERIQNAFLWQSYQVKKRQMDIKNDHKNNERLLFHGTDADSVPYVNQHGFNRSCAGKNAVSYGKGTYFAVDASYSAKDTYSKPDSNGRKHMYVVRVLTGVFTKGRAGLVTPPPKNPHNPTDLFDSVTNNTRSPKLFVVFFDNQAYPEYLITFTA
# From the text: as §1
# [4] = biological target: T3, PARP5bcat (Homo sapiens, UniProt Q9H2K2); assay: as above
# T3 construct: PARP5bcat
# From the text: as §1
# [5] = biological target: PARP2 (Homo sapiens, UniProt Q9UGN5); assay: as above
# From the text: as §1
# [6] = biological target: T4, PARP11 (Homo sapiens, UniProt Q9NR21); assay: as above
# T4 sequence (Q9NR21 1-338): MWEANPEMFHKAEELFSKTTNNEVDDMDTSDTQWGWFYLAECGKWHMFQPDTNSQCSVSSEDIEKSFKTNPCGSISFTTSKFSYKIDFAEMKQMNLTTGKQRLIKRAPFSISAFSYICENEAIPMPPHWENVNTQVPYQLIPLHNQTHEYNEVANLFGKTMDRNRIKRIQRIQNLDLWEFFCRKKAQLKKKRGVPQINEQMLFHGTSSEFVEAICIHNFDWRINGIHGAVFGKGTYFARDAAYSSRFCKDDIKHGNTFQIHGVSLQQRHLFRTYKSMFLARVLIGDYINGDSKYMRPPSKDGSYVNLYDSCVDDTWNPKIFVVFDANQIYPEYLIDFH
# From the text: as §1
# [7] = tested on: PARP4brct-cat; assay: as above; settings: PARP4brct-cat over PARP10cat
# From the text: as §1
# [8] = biological target: T5, PARP10cat (Homo sapiens, UniProt Q53GL7); assay: as above
# T5 sequence (Q53GL7 806-1025 limits assumed): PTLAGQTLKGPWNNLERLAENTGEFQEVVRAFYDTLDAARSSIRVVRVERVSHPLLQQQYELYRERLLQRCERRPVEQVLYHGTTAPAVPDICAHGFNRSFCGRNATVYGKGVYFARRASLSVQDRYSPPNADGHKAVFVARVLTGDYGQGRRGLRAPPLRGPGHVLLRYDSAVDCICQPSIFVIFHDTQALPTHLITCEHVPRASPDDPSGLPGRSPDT
# From the text: as §1
# [9] = tested on: PARP14cat-wwe; assay: as above; settings: PARP14cat-wwe over PARP10cat
# From the text: as §1
# [10] = biological target: T6, PARP14cat-wwe (Homo sapiens, UniProt Q460N5); assay: as above; settings: 6-a-NAD+
# T6 construct: PARP14cat-wwe
# T6 sequence (Q460N5 1523-1801): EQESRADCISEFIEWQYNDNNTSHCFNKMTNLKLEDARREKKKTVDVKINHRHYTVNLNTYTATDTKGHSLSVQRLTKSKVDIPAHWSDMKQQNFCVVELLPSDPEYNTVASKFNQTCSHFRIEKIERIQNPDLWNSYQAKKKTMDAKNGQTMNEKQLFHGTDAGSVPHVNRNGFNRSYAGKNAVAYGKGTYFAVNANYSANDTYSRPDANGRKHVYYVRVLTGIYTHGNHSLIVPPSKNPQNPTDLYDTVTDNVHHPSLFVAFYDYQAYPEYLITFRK
# From the text: as §1
# [11] = biological target: T7, PARP3 (Homo sapiens, UniProt Q9Y6F1); assay: as above
# T7 sequence (Q9Y6F1 1-533): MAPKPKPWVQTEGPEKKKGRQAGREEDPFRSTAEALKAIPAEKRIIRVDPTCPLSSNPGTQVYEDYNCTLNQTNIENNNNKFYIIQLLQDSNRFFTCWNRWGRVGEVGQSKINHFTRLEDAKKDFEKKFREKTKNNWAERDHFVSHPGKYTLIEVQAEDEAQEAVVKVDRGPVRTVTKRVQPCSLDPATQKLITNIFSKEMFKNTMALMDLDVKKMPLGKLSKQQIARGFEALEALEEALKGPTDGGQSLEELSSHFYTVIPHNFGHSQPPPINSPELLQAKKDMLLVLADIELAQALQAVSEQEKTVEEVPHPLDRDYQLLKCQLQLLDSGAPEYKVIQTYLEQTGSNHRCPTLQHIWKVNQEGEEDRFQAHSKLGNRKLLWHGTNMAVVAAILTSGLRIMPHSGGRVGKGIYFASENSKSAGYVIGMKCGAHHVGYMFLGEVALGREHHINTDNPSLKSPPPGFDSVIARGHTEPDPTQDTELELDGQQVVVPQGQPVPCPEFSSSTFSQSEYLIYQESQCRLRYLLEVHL
# From the text: as §1
# [12] = biological target: T4, PARP11; assay: Inhibition of PARP11-mediated ADP-ribosylation of SRPK2 using NAD+ (100 μM); settings: ADP-ribosylation of SRPK2, NAD+ 100 μM
# Sequence of PARP1 (P09874 whole entry): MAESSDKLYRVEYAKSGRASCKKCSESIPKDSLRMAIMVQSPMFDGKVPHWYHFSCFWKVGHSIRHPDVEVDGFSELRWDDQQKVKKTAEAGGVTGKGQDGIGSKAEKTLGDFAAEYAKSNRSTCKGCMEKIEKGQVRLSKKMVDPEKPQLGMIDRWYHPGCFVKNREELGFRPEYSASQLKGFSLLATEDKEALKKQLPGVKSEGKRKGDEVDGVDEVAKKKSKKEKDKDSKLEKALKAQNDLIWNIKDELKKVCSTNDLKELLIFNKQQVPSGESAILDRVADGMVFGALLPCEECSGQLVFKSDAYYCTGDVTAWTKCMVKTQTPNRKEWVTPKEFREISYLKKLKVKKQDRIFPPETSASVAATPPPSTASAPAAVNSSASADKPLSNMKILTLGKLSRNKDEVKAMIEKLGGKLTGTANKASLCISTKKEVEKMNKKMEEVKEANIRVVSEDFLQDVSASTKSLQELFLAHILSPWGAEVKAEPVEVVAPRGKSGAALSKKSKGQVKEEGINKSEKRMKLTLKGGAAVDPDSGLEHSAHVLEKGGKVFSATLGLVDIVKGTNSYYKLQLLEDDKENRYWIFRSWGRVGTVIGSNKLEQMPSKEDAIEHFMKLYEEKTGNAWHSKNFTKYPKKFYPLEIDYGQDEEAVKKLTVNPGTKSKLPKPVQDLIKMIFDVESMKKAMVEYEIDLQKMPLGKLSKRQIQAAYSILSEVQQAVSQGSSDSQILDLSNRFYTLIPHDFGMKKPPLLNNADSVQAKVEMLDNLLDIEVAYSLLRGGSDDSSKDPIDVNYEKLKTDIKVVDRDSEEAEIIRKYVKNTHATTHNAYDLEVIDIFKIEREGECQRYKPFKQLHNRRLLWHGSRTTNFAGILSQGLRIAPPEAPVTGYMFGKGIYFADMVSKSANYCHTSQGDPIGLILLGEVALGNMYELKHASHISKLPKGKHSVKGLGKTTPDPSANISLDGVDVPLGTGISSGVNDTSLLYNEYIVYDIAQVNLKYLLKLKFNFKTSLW
# T3 sequence (Q9H2K2 959-1164): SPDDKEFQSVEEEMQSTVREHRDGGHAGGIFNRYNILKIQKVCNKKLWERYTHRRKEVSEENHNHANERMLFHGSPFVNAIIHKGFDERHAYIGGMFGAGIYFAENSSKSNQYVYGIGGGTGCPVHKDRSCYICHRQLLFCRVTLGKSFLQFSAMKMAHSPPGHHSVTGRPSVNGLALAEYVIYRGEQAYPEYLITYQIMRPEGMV
# Sequence of PARP2 (Q9UGN5 whole entry): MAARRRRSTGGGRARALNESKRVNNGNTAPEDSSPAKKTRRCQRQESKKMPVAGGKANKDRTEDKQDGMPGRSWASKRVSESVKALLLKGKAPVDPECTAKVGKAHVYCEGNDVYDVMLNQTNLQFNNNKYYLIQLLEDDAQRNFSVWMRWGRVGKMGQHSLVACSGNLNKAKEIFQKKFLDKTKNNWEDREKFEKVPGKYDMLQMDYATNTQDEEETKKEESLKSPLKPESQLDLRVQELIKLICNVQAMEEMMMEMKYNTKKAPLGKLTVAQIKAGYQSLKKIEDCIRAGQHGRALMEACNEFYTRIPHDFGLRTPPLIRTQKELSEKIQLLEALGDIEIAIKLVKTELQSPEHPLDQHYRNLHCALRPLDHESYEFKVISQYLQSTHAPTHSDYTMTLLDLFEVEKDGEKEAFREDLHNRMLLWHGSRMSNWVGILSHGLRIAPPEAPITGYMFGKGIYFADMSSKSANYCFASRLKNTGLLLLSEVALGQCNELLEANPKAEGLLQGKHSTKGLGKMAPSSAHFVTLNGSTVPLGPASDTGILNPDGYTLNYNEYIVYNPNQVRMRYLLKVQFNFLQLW
# T1 sequence (Q9UKK3 whole entry): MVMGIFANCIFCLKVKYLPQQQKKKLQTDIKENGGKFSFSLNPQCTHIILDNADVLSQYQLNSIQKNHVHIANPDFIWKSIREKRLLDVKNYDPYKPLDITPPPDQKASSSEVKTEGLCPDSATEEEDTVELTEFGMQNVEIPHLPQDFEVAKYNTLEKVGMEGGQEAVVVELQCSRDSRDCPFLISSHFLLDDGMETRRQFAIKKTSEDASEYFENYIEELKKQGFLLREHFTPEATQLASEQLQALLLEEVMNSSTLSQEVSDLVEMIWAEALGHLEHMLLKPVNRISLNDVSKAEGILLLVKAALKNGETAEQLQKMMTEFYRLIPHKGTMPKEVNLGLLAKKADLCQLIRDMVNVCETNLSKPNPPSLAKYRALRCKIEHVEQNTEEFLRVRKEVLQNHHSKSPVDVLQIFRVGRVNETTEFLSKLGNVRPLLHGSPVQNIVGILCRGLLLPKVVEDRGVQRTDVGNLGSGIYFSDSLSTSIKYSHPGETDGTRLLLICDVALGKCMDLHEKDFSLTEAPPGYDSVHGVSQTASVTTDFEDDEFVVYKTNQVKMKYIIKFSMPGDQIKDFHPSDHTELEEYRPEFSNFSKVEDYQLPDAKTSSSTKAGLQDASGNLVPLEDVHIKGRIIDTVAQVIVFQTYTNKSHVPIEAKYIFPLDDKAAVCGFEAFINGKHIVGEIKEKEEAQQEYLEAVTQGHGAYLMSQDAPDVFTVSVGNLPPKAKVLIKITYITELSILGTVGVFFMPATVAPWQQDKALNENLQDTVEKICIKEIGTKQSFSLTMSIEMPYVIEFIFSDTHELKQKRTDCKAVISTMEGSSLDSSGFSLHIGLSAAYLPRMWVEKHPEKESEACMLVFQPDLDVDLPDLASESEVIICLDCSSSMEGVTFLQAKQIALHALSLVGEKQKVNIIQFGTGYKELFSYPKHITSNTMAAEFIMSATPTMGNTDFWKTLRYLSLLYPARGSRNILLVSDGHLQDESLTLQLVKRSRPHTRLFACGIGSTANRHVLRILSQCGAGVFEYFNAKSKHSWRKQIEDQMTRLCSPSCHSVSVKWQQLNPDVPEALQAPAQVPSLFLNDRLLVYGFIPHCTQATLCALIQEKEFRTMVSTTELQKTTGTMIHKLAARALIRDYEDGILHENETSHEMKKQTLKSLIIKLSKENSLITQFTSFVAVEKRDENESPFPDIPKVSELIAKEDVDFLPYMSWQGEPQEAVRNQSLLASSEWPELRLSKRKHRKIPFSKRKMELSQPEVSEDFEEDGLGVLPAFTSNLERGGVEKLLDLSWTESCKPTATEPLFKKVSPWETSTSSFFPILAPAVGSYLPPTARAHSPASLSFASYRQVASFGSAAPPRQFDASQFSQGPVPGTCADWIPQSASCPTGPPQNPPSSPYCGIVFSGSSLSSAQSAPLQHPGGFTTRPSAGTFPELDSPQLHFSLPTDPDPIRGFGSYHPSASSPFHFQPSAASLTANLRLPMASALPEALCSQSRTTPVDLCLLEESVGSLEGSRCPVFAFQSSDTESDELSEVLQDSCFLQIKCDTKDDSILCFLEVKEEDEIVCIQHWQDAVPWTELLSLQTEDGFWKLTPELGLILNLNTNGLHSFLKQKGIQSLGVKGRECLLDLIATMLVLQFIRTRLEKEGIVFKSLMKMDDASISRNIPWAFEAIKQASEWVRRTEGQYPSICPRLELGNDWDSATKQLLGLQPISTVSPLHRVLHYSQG
structure (smiles),measurement,setting,value
"Cc1c(-c2ccnc(C(F)(F)F)c2)ccc2c1CCNC2=O [Compound 22, 5-methyl-6-(2-(trifluoromethyl)pyridin-4-yl)-3,4-dihydroisoquinolin-1(2H)-one]",inhibition of PARP4,[1],does not inhibit
same,IC50,[2]; 6-a-NAD+,> 100 µM
same,PARP/PARP10,[2]; PARP1 over PARP10cat,>>37
same,inhibition of PARP1,[2]; up to 100 μM,does not inhibit
same,IC50,[3]; 6-a-NAD+,62.9 µM
same,PARP15cat pIC50 ± S.E.M.,[3]; 6-a-NAD+,4.20 ± 0.05
same,PARP/PARP10,[3]; PARP15cat over PARP10cat,23
same,IC50,[4]; 6-a-NAD+,> 100 µM
same,PARP/PARP10,[4]; PARP5bcat over PARP10cat,>>37
same,inhibition of PARP 5b,[4]; up to 100 μM,does not inhibit
same,IC50,[5]; 6-a-NAD+,> 100 µM
same,PARP/PARP10,[5]; PARP2 over PARP10cat,>37
same,inhibition of PARP2,[5]; up to 100 μM,does not inhibit
same,IC50,[6]; 6-a-NAD+,62.9 µM
same,PARP/PARP10,[6]; PARP11 over PARP10cat,23
same,PARP/PARP10,[7],>37
same,selectivity for PARP10 over PARPs 1-4 and PARP 5b,[8]; 6-a-NAD+,greater than 37 fold
same,IC50,"[8]; 6-a-NAD+, read-out: PARP10cat IC50",2.7 µM
same,IC50,"[8]; 6-a-NAD+, read-out: PARP10cat pIC50 ± S.E.M. (converted)",2.75 µM
same,PARP/PARP10,[8]; PARP10cat over PARP10cat,1
same,PARP/PARP10,[9],22
same,IC50,[10],60.5 µM
same,PARP14cat-wwe pIC50 ± S.E.M.,[10],4.22 ± 0.04
same,IC50,[11]; 6-a-NAD+,> 100 µM
same,PARP/PARP10,[11]; PARP3 over PARP10cat,>>37
same,inhibition of PARP3,[11]; up to 100 μM,does not inhibit
same,IC50,[12],51.7 µM
same,PARP11 pIC50 ± S.E.M.,[12],4.29 ± 0.04
